Data reported in article PMC3025571 (Nucleic Acids Research, 2010).
Read-outs that look alike come from different tables or passages of the source.

Biological target: human FEN1 (Homo sapiens, UniProt P39748)
Assay: Kinetic fluorogenic
Format: biochemical

Sequence of human FEN1 (P39748 whole entry): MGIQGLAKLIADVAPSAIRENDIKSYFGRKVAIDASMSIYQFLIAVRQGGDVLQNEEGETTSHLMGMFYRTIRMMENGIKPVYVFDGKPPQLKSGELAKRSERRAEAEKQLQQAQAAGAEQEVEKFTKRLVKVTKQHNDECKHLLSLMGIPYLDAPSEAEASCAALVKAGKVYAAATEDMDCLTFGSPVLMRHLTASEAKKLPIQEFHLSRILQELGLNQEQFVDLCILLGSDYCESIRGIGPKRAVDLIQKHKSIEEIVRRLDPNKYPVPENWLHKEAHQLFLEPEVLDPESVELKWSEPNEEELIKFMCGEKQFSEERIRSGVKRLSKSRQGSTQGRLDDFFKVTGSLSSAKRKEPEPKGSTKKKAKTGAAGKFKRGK

O=C(O)C1=CC(=C(c2ccc(O)c(C(=O)O)c2)c2ccc(O)c(C(=O)O)c2)C=CC1=O [ATA, aurintricarboxylic acid]
IC50 (average IC50, average of the fluorogenic and AlphaScreen assays): 590 nM

C[S+](C)[O-] [DMSO, Dimethyl sulfoxide]
inhibition of FEN1 (concentrations up to 0.67%, data not shown, assay format not specified): not inhibit

O=C(O)c1cc[c]([Sb](=[O])([OH])[OH])cc1[N+](=O)[O-] [NSC-13755]
IC50 (read-out: average IC50, average of the fluorogenic and AlphaScreen assays): 930 nM
